From patent US20230159496A1, “COMPOUNDS AND METHODS FOR MODULATING SPLICING” (REMIX THERAPEUTICS INC., priority 2020, published 2023)
Like-named read-outs stand apart in the source and are kept apart here.

Key:
Type in all cases: cell-based
HTT mRNA = assay: Splicing assay (RT-qPCR) monitoring HTT canonical junction (CJ) and alternative junction (AJ) mRNA isoforms; details: A673 or K562 cells, 24 h treatment, top dose 10 uM
Method: Compounds described herein were used to modulate RNA transcript abundance in cells. The expression of a target mRNA was measured by detecting the formation of an exon-exon junction in the canonical transcript (CJ). A compound mediated exon-inclusion event was detected by observing an increase in formation of a new junction with an alternative exon (AJ). Real-time qPCR assays were used to detect these splicing switches and interrogate the potency of various compounds towards different target genes. A high-throughput real time quantitative PCR (RT-qPCR) assay was developed to measure these two isoforms of the mRNA (CJ and AJ) for an exemplary gene, HTT, together with a control housekeeping gene, GAPDH or GUSB or PPIA, used for normalization. Briefly, the A673 or K562 cell line was treated with various compounds described herein (e.g., compounds of Formula (I)). After treatment, the levels of the HTT mRNA targets were determined from each sample of cell lysate by cDNA synthesis followed by qPCR.
• Cells-to-CT 1-step kit: ThermoFisher A25602, Cells-to-CT lysis reagent: ThermoFisher 4391851C, TaqMan™ Fast Virus 1-Step Master Mix: ThermoFisher 4444436 • GAPDH: VIC-PL, ThermoFisher 4326317E (Assay: Hs99999905_m1)—used for K562/suspension cell lines • GUSB: VIC-PL, ThermoFisher 4326320E (Assay: Hs99999908_m1)—used for K562/suspension cell lines • PPIA: VIC-PL, ThermoFisher 4326316E (Assay: Hs99999904_m1) — used for A673/adherent cell lines
The A673 cell line was cultured in DMEM with 10% FBS. Cells were diluted with full growth media and plated in a 96-well plate (15,000 cells in 100 ul media per well). The plate was incubated at 37° C. with 5% CO2 for 24 hours to allow cells to adhere. An 11-point 3-fold serial dilution of the compounds was made in DMSO then diluted in media in an intermediate plate. Compounds were transferred from the intermediate plate to the cell plate with the top dose at a final concentration of 10 uM in the well. Final DMSO concentration was kept at or below 0.25%. The cell plate was returned to the incubator at 37° C. with 5% CO2 for an additional 24 hours.
The K562 cell line was cultured in IMDM with 10% FBS. For K562, cells were diluted with full growth media and plated in either a 96-well plate (50,000 cells in 50 uL media per well) or a 384-well plate (8,000-40,000 cells in 45 uL media per well). An 11-point 3-fold serial dilution of the compounds were made in DMSO then diluted in media in an intermediate plate. Compound was transferred from the intermediate plate to the cell plate with the top dose at a final concentration of 10 uM in the well. Final DMSO concentration was kept at or below 0.25%. Final volume was 100 uL for 96-well plate and 50 uL for 384-well plate. The cell plate was then placed in an incubator at 37° C. with 5% CO2 for 24 hours.
The cells were then gently washed with 50 uL-100 uL cold PBS before proceeding to addition of lysis buffer. 30 uL-50 uL of room temperature lysis buffer with DNAse I (and optionally RNAsin) was added to each well. Cells were shaken/mixed thoroughly at room temperature for 5-10 minutes for lysis to take place and then 3 uL-5 uL of room temperature stop solution was added and wells were shaken/mixed again. After 2-5 minutes, the cell lysate plate was transferred to ice for RT-qPCR reaction setup. The lysates could also be frozen at −80° C. for later use.
In some cases, a direct lysis buffer was used. An appropriate volume of 3× lysis buffer (10 mM Tris, 150 mM NaCl, 1.5%-2.5% Igepal and 0.1-1 U/uL RNAsin, pH 7.4) was directly added to either K562 or A673 cells in media and mixed by pipetting 3 times. The plates were then incubated at room temperature with shaking/rocking for 20-50 minutes to allow for lysis to take place. After this time, the cell lysate plate was transferred to ice to set up for the RT-qPCR reactions. The lysates could also be frozen at −80° C. for later use. […]

HTT CJ mRNA = assay: Gene panel canonical junction qPCR assay, HTT; details: decrease in CJ mRNA levels, gene panel; read-out: HTT IC50
Method: (§1) The expression of a target mRNA was measured by detecting the formation of an exon-exon junction in the canonical transcript (CJ). A compound mediated exon-inclusion event was detected by observing an increase in formation of a new junction with an alternative exon (AJ). Real-time qPCR assays were used to detect these splicing switches and interrogate the potency of various compounds towards different target genes. A high-throughput real time quantitative PCR (RT-qPCR) assay was developed to measure these two isoforms of the mRNA (CJ and AJ) for an exemplary gene, HTT, together with a control housekeeping gene, GAPDH or GUSB or PPIA, used for normalization. Briefly, the A673 or K562 cell line was treated with various compounds described herein (e.g., compounds of Formula (I)). After treatment, the levels of the HTT mRNA targets were determined from each sample of cell lysate by cDNA synthesis followed by qPCR. The A673 cell line was cultured in DMEM with 10% FBS. Cells were diluted with full growth media and plated in a 96-well plate (15,000 cells in 100 ul media per well). The plate was incubated at 37° C. with 5% CO2 for 24 hours to allow cells to adhere. An 11-point 3-fold serial dilution of the compounds was made in DMSO then diluted in media in an intermediate plate. Compounds were transferred from the intermediate plate to the cell plate with the top dose at a final concentration of 10 uM in the well. Final DMSO concentration was kept at or below 0.25%. The cell plate was returned to the incubator at 37° C. with 5% CO2 for an additional 24 hours. The K562 cell line was cultured in IMDM with 10% FBS. For K562, cells were diluted with full growth media and plated in either a 96-well plate (50,000 cells in 50 uL media per well) or a 384-well plate (8,000-40,000 cells in 45 uL media per well). An 11-point 3-fold serial dilution of the compounds were made in DMSO then diluted in media in an intermediate plate. Compound was transferred from the intermediate plate to the cell plate with the top dose at a final concentration of 10 uM in the well. Final DMSO concentration was kept at or below 0.25%. Final volume was 100 uL for 96-well plate and 50 uL for 384-well plate. The cell plate was then placed in an incubator at 37° C. with 5% CO2 for 24 hours. The cells were then gently washed with 50 uL-100 uL cold PBS before proceeding to addition of lysis buffer. 30 uL-50 uL of room temperature lysis buffer with DNAse I (and optionally RNAsin) was added to each well. Cells were shaken/mixed thoroughly at room temperature for 5-10 minutes for lysis to take place and then 3 uL-5 uL of room temperature stop solution was added and wells were shaken/mixed again. After 2-5 minutes, the cell lysate plate was transferred to ice for RT-qPCR reaction setup. The lysates could also be frozen at −80° C. for later use. In some cases, a direct lysis buffer was used. An appropriate volume of 3× lysis buffer (10 mM Tris, 150 mM NaCl, 1.5%-2.5% Igepal and 0.1-1 U/uL RNAsin, pH 7.4) was directly added to either K562 or A673 cells in media and mixed by pipetting 3 times. The plates were then incubated at room temperature with shaking/rocking for 20-50 minutes to allow for lysis to take place. After this time, the cell lysate plate was transferred to ice to set up for the RT-qPCR reactions. The lysates could also be frozen at −80° C. for later use. To set up 10 uL RT-qPCR reactions, cell lysates were transferred to 384-well qPCR plates containing the master mix according to the table below. The plates were sealed, gently vortexed, and spun down before the run. The volumes were adjusted accordingly in some instances where the reaction was carried in 20 uL. The table below summarizes the components of the RT-qPCR reactions: The RT-qPCR reaction was performed using a QuantStudio (ThermoFisher) under the following fast cycling conditions. All samples and standards were analyzed at least in duplicate.

SMN2 CJ mRNA = assay: Gene panel canonical junction qPCR assay, SMN2; details: decrease in CJ mRNA levels, gene panel; read-out: SMN2 IC50
Method: as §1

Target C CJ mRNA = assay: Gene panel canonical junction qPCR assay, Target C; details: decrease in CJ mRNA levels, gene panel; read-out: Target C IC50
Method: as §1

[1] = decrease in CJ mRNA (50% response), read-out: HTT CJ AC50
[2] = increase in AJ mRNA (50% response), read-out: HTT AJ AC50

Structure (SMILES) | AC50 (HTT mRNA; [1]) [nM] | AC50 (HTT mRNA; [2]) [nM] | IC50 (HTT CJ mRNA) [nM] | IC50 (SMN2 CJ mRNA) [nM] | IC50 (Target C CJ mRNA) [nM]
Cc1cn2cc(-c3ccc4c(c3)CCN(C3CCNCC3)C4=O)cc(C(F)(F)F)c2n1 [Compound 252, 6-[2-methyl-8-(trifluoromethyl)imidazo[1,2-a]pyridin-6-yl]-2-(piperidin-4-yl)-3,4-dihydroisoquinolin-1-one] | > 10000 | > 10000 | > 10000 | 100 to 1000 | > 10000
CN1CCN(c2ccc3c(=O)n(-c4ccc5cn(C)nc5c4)cnc3c2)CC1 [Compound 178, 3-(2-methyl-2H-indazol-6-yl)-7-(4-methylpiperazin-1-yl)quinazolin-4(3H)-one] | > 10000 | > 10000 | > 10000 | > 10000 | > 10000
CN1CCN(c2ccc3nc(-c4ccc5nn(C)cc5c4)[nH]c(=O)c3c2)CC1 [Compound 108, 2-(2-methyl-2H-indazol-5-yl)-6-(4-methylpiperazin-1-yl)quinazolin-4(3H)-one] | > 10000 | > 10000 | > 10000 | 1000 to 10000 | 1000 to 10000
Cc1cn2cc(-c3ccc4c(=O)n(C5CCNCC5)ncc4c3)c(C)cc2n1 [Compound 254] | 1000 to 10000 | 1000 to 10000 | 1000 to 10000 | 1000 to 10000 | 1000 to 10000
Cc1cn2nc(-c3ccc4c(c3)CCN(C3CCN(C)CC3)C4=O)cc(C)c2n1 [Compound 268] | 1000 to 10000 | 1000 to 10000 | 1000 to 10000 | < 100 | > 10000
Cc1cn2cc(-c3ccc4c(=O)n(C5CCNCC5)cnc4c3)ncc2n1 [Compound 297] | 1000 to 10000 | 1000 to 10000 | 1000 to 10000 | < 100 | 1000 to 10000
Cc1cc(-c2cc(F)c3c(=O)n(C4CCN(C)CC4)cnc3c2)cc2cn(C)nc12 [Compound 233, 7-(2,7-dimethyl-2H-indazol-5-yl)-5-fluoro-3-(1-methylpiperidin-4-yl)quinazolin-4(3H)-one] | 100 to 1000 | 100 to 1000 | 100 to 1000 | < 100 | 1000 to 10000
Cc1cn2cc(-c3cc(F)c4c(=O)n(C5CCN(C)CC5)cnc4c3)cc(F)c2n1 [Compound 231, 5-fluoro-7-(8-fluoro-2-methylimidazo[1,2-a]pyridin-6-yl)-3-(1-methylpiperidin-4-yl)quinazolin-4(3H)-one] | 100 to 1000 | 100 to 1000 | 100 to 1000 | < 100 | 1000 to 10000
Cc1cn2cc(-c3ccc4c(=O)n(C5CCN(C)CC5)cnc4c3)nc2c(C)n1 [Compound 302] | 1000 to 10000 | 1000 to 10000 | 1000 to 10000 | 100 to 1000 | 1000 to 10000
Cc1cn2nc(-c3ccc4c(=O)n(C5CCN(C)CC5)cnc4c3F)cc(C)c2n1 [Compound 290, 7-(2,8-dimethylimidazo[1,2-b]pyridazin-6-yl)-8-fluoro-3-(1-methylpiperidin-4-yl)quinazolin-4(3H)-one] | 100 to 1000 | 100 to 1000 | 100 to 1000 | 100 to 1000 | 100 to 1000
Cc1cn2nc(-c3ccc4c(=O)n(C5CCN(C)C5)ncc4c3)cc(C)c2n1 (stereo not shown) [Compound 271, 6-{2,8-dimethylimidazo[1,2-b]pyridazin-6-yl}-2-(1-methylpyrrolidin-3-yl)phthalazin-1-one] | 1000 to 10000 | 1000 to 10000 | 1000 to 10000 | 100 to 1000 | 1000 to 10000
Cc1cn2cc(-n3cnc4cc(N5CCN(C)CC5)ccc4c3=O)cc(F)c2n1 [Compound 229, 3-(8-fluoro-2-methylimidazo[1,2-a]pyridin-6-yl)-7-(4-methylpiperazin-1-yl)quinazolin-4(3H)-one] | > 10000 | > 10000 | > 10000 | > 10000 | > 10000
Cc1cn2nc(-c3ccc4c(c3)CCN(C3CCNCC3)C4=O)nc2c(C)n1 [Compound 222] | 1000 to 10000 | 1000 to 10000 | 1000 to 10000 | 100 to 1000 | 1000 to 10000
Cc1cn2cc(-c3ccc4c(=O)n(C5CCNCC5)ncc4c3)cc(Cl)c2n1 [Compound 256] | 100 to 1000 | 100 to 1000 | 100 to 1000 | < 100 | > 10000
